≈ marks a conversion by molar mass, not a printed value.
Columns and labels:
nAChR α3/β4 = nAChR α3/β4 (Homo sapiens, UniProt P30926+P32297); assay: nAChR α3/β4 channel agonist assay (FLIPR); assay type: cell-based; conditions: test conc 1 μM; 100% = 30 μM Ach, 0% = HBPS
Method: (§1) Briefly, cells were incubated with […] dye for 30 min at 37° C.

nAChR α4/β2 = molecular target: T1, nAChR α4/β2 (Homo sapiens, UniProt P17787+P43681); assay: nAChR α4/β2 channel agonist assay (FLIPR); assay type: cell-based; conditions: test conc 0.3 μM; 100% = 30 μM Ach, 0% = HBPS
T1 construct: host or cells: HEK293 cells, transient
T1 sequence (P43681 29-627): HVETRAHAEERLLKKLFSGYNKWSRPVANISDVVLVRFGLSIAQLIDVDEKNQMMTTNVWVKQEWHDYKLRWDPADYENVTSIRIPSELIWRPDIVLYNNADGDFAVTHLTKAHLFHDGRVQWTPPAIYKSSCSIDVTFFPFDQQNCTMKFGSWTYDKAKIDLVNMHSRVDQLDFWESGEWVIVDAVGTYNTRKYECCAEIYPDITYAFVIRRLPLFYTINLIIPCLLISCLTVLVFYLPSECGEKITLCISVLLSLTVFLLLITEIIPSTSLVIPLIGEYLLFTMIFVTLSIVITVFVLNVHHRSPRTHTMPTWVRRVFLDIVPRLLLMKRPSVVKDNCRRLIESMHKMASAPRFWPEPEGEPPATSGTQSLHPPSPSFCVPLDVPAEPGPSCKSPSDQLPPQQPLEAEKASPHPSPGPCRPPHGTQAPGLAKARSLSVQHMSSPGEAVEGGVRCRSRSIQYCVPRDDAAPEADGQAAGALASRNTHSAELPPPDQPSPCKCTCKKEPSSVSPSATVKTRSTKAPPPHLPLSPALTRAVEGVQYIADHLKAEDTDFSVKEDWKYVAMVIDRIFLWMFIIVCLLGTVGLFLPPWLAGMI
T1 sequence (P17787 26-502): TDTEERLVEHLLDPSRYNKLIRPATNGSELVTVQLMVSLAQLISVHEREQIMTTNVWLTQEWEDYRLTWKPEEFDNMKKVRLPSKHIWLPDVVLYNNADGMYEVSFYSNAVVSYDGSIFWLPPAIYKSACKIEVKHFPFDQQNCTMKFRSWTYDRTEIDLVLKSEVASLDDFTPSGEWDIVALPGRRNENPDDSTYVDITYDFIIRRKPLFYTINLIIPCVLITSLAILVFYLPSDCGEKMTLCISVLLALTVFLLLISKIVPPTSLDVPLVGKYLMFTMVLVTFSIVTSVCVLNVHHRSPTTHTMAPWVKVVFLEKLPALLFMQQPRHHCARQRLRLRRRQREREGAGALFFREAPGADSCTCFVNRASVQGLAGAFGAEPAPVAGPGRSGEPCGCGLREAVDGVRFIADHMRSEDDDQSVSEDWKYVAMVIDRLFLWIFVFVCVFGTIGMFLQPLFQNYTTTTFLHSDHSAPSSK
Method: as §1

nAChR α7 [1] = molecular target: T2, nAChR α7 (Homo sapiens, UniProt P36544); assay: nAChR α7 channel agonist assay (FLIPR); assay type: cell-based; conditions: in presence of PNU-120596, 100% = 30 μM Ach+10 μM PNU-120596, 0% = HBPS
T2 construct: host or cells: CHO cells coexpressing RIC-3
T2 sequence (P36544 23-502): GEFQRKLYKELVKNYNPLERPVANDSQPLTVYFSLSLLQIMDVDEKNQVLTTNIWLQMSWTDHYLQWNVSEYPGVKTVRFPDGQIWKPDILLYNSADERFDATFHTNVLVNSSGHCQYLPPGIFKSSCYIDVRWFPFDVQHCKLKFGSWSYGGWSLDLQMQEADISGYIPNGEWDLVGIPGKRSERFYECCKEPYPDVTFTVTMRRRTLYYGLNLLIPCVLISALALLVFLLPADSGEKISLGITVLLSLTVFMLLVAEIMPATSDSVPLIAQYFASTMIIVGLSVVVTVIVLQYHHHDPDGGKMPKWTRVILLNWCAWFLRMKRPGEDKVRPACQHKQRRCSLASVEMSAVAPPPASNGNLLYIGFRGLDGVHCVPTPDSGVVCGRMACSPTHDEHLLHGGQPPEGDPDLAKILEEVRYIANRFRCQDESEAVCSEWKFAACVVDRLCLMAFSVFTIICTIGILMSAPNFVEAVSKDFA
Method: as §1
Therefore, the assay of agonist activity for either Ach or for the test articles was conducted in the presence of the positive allosteric modulator.

nAChR α7 [2] = molecular target: T2, nAChR α7; assay: nAChR α7 channel positive allosteric modulator assay (FLIPR); assay type: cell-based; conditions: with 30 μM Ach, 100% = 30 μM Ach+10 μM PNU-120596, 0% = 30 μM Ach
Method: as §1

nAChR α7 [3] = molecular target: T2, nAChR α7; assay: nAChR α7 channel antagonist assay (FLIPR); assay type: cell-based; conditions: with 300 μM Ach+10 μM PNU-120596, control antagonist 10 μM MLA
Method: as §1

IL-1β = assay: LPS-induced IL-1β release in whole human blood; assay type: cell-based; conditions: whole human blood + LPS; 16 hours (Example 13)
Method: Whole human blood was treated with LPS to stimulate inflammatory responses. […] The inflammatory molecule IL-1β was measured after 16 hours.

NFκB = NFκB luciferase assay (inhibition of TNFα-induced NFκB activity); assay type: cell-based, Human; conditions: Homo sapiens; 20 ng/ml TNFα; HEK293 NFκB luciferase
Method: The smokeless tobacco used in these experiments was plain long-leaf Copenhagen tobacco purchased from a local vendor. Crude extract was extracted with methanol and water and clarified by centrifugation and filtration. The alkaloid extract was prepared from sodium hydroxide and methanol extraction, organic phase separation and purification. All treatment samples were prepared as a function of weight (μg/ml), and all samples were diluted in DMSO.
Human […] kidney cells (HEK293) transfected with an NFκB luciferase reporter were challenged with TNFα for three hours, then samples were applied to the challenged cells.
The effect of S-(−)-anatabine on TNFα-induced NFκB activity in vitro was determined as described in Example 1.

[4] = Treatment of a patient with Hashimoto's thyroiditis; assay type: in vivo, human; conditions: one patient
From the text: This example illustrates administering anatabine for treating thyroiditis. A patient had been afflicted with Hashimoto's thyroiditis for approximately 5 years. The patient's condition had advanced to a state where the treating physician recommended a thyroid lobectomy.

[5] = Plasma pharmacokinetics after oral multi-dose anatabine polacrilex; assay type: in vivo, Sprague-Dawley rats; conditions: for t1/2, terminal / AUC0→∞: rat; for t1/2, terminal: after the final dose; for AUC0→∞: males and females combined
Method: This study consisted of two groups of 8 animals each, 4 males and 4 females.
The vehicle was sterile phosphate buffered saline (PBS) (Amresco). […] Two formulations were prepared; one for each of the two treatment groups. The test compound was formulated for each treatment group just prior to the first dose administration and constantly stirred until dosing was completed (Table 37). Four aliquots of each dose level formulation were collected and stored at −80° C.
The animals were weighed prior to dosing and received three doses p.o. of test compound at a volume of 5 mL/kg. Blood was collected via the venus plexus (retro-orbital) into tubes containing (K2) EDTA. No more than 0.5 mL was collected per time point.
Sample preparation. Plasma samples were treated with three volumes of methanol containing internal standard at 1 μM (R,S)-Antabine-2,4,5,6-d4), incubated 10 min at 4° C., and centrifuged. The amount of the test agent in the supernatant was determined by LC/MS/MS.
Analysis. Samples were analyzed by LC/MS/MS using an Agilent 6410 mass spectrometer coupled with an Agilent 1200 high pressure liquid chromatography (HPLC) and a CTC PAL chilled autosampler, all controlled by MassHunter software (Agilent). After separation on a Hydrophilic interaction liquid chromatography (HILIC) HPLC column (Sepax) using an acetonitrile-ammonium acetate/acetic acid gradient system, peaks were analyzed by mass spectrometry (MS) using ESI ionization in multiple reaction monitoring (MRM) mode. MassHunter software was used to calculate the concentration of the test compounds in samples from the peak area using the appropriate calibration curves.
Descriptive statistics were calculated for all pharmacokinetic parameters. Elimination half-lives (t1/2) were calculated by linear regression of logarithmically transformed plasma concentration data for each period between doses and following the final dose.
Total areas under the plasma concentration curves (AUC) and under the first moment curves (AUMC) were calculated using linear trapezoidal summation across all concentration time points as well as for intervals between each dose administration and following the final dose. […] Mean absorption times (MAT) were calculated according to the following relation: […]

[6] = Physical signs after oral multi-dose administration (Example 5); assay type: in vivo, Sprague-Dawley rats; conditions: rat; oral gavage 0.6 or 6.0 mg/kg BW in three divided doses
From the text: The physical signs of each animal were monitored following administration of the test compound.

Chain of nAChR α3/β4 (P32297 32-505): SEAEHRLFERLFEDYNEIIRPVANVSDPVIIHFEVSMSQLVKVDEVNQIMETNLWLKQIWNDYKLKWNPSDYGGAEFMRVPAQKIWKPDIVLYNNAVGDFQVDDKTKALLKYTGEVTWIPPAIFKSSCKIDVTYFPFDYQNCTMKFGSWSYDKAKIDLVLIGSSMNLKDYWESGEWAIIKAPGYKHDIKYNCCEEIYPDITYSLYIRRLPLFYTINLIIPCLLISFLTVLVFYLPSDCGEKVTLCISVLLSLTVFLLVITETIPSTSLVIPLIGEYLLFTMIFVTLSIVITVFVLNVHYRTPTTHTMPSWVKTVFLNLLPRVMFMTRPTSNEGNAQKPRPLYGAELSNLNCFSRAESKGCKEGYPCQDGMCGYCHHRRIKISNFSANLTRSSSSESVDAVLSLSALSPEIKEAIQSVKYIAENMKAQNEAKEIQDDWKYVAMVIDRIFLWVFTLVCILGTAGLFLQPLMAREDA
Chain of nAChR α3/β4 (P30926 22-498): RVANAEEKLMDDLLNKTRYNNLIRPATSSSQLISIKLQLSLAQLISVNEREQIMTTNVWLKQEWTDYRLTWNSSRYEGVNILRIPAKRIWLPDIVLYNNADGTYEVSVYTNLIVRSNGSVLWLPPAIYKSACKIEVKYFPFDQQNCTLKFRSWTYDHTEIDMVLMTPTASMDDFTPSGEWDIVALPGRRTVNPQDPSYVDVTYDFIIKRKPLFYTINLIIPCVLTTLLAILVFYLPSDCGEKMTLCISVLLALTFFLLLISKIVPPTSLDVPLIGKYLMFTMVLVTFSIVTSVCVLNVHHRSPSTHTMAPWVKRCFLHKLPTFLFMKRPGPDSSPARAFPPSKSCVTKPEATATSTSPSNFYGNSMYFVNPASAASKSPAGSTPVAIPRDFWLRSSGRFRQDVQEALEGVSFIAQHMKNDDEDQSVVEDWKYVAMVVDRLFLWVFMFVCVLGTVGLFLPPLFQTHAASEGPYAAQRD

Question: For `C1=CCC(c2cccnc2)NC1` (racemic) [Anatabine (racemate)], which “Normalized % Activation” value (nAChR α3/β4) is on record?
Answer: −0.01%

Question: What about the “Normalized % Activation” value (nAChR α4/β2) of the same molecule?
Answer: 0.28%

Question: What about the “Normalized % Activation” value (nAChR α7 [1]; test conc 1 μm) of the same molecule?
Answer: 0.34%

Question: What about the “Normalized % Activation” value (nAChR α7 [1]; test conc 3 μm) of the same molecule?
Answer: 0.78%

Question: And the “Normalized % Potentiation” value (nAChR α7 [2]; test conc 0.3 μm)?
Answer: −0.94%

Question: And the “Normalized % Potentiation” value (nAChR α7 [2]; test conc 3 μm)?
Answer: −0.82%

Question: And the “Normalized % Potentiation” value (nAChR α7 [2]; test conc 10 μm)?
Answer: −0.51%

Question: What about the “Normalized % Potentiation” value (nAChR α7 [2]; test conc 30 μm) of the same molecule?
Answer: −0.57%

Question: And the “Normalized % Potentiation” value (nAChR α7 [2]; test conc 100 μm)?
Answer: −0.64%

Question: What about the “Normalized % Potentiation” value (nAChR α7 [2]; test conc 300 μm) of the same molecule?
Answer: −0.74%

Question: And the “Normalized % Inhibition” value (nAChR α7 [3]; test conc 0.3 μm)?
Answer: 22.38%

Question: What about the “Normalized % Inhibition” value (nAChR α7 [3]; test conc 1 μm) of the same molecule?
Answer: 22.23%

Question: What about the “Normalized % Inhibition” value (nAChR α7 [3]; test conc 3 μm) of the same molecule?
Answer: 45.19%

Question: What about the “Normalized % Inhibition” value (nAChR α7 [3]; test conc 10 μm) of the same molecule?
Answer: 33.42%

Question: And the “Normalized % Inhibition” value (nAChR α7 [3]; test conc 30 μm)?
Answer: 22.88%

Question: What about the “Normalized % Inhibition” value (nAChR α7 [3]; test conc 100 μm) of the same molecule?
Answer: 21.99%

Question: And the “Normalized % Inhibition” value (nAChR α7 [3]; test conc 300 μm)?
Answer: 7.51%

Question: What about the “Normalized % Inhibition” value (nAChR α7 [3]; test conc 1000 μm) of the same molecule?
Answer: 10.84%

Question: Which “accumulation of IL-1β” value (IL-1β) does the source give for `CC(C)c1c(C(=O)Nc2ccccc2)c(-c2ccccc2)c(-c2ccc(F)cc2)n1CC[C@@H](O)C[C@@H](O)CC(=O)[O-].CC(C)c1c(C(=O)Nc2ccccc2)c(-c2ccccc2)c(-c2ccc(F)cc2)n1CC[C@@H](O)C[C@@H](O)CC(=O)[O-].[Ca+2]` [LIPITOR®, reference compound] here?
Answer: had no effect at the dose shown

Question: With `C1=CC[C@@H](c2cccnc2)NC1` [S-(−)-anatabine] as the molecule, how does the IC50 (NFκB) read?
Answer: ~330 µg/mL (≈ 2060 µM)

Question: Which results are given for anatabine citrate?
Answer: inflammation of the thyroid ([4]; about 600 μg tablets 20 times daily, 30 days): reduced to normal levels; voice distortion associated with thyroiditis ([4]; after an additional 30 days): no longer present

Question: Which results are given for anatabine polacrilex?
Answer: Cp, min(2) ([5]; females, 6.0 mg/kg BW group): 180 ± 31 ng/mL; Cp, min, first minimum ([5]; females, 6.0 mg/kg BW group): 51.5 ± 26.0 ng/mL; t1/2, terminal ([5]; 0.6 mg/kg BW group): 1.79 ± 0.64 h; AUC0→∞ ([5]; 0.6 mg/kg BW p.o. in three divided doses): 285 ± 77 ng·h/mL; t1/2, terminal ([5]; 6.0 mg/kg BW group): 4.53 ± 1.77 h; AUC0→∞ ([5]; 6.0 mg/kg BW p.o. in three divided doses): 3496 ± 559 ng·h/mL; adverse signs [6]: no adverse signs were observed

From patent publication US20160030407A1, “Method of Treating Inflammatory Lung Disease” (priority 2010, published 2016)
